The nature of the test: sensory evaluation of saltiness intensity by expert panel, 1.0% sodium chloride solution. The class given is in vivo. How it is done: Evaluation samples 1 to 10 were prepared by adding a cyclotene diluted solution (using propylene glycol as a solvent) to 1.0% sodium chloride solution to adjust the concentration of cyclotene in the sodium chloride solution as shown in the following Table 1. The amount of propylene glycol added was adjusted to be the same in all evaluation samples.
A panel of four experts conducted a sensory evaluation of the saltiness intensity of evaluation samples 1 to 10. The sensory evaluation was performed by the four experts, who scored each evaluation sample in 0.1 point increments based on the following evaluation scale using 1.0% sodium chloride solution, 1.025% sodium chloride solution and 1.05% sodium chloride solution as reference samples, and calculated the average score of the four experts. The four experts were previously trained to have a common understanding of the following saltiness intensity evaluation scale, such as the amount of saltiness intensity change required to cause a score change of 0.1 point.
• 0.0 points: saltiness intensity equivalent to 1.0% sodium chloride solution • 5.0 points: saltiness intensity equivalent to 1.025% sodium chloride solution • 10.0 points: saltiness intensity equivalent to 1.05% sodium chloride solution

On to `CC1=C(O)C(=O)CC1` [cyclotene], for which the “saltiness enhancement (in words)” value is on record as “has a saltiness enhancing action”.

The values above are taken from patent US20250024872A1, “SALTY TASTE ENHANCER” (AJINOMOTO CO., INC., priority 2022, published 2025).
